This experiment has as its target LeuT (Aquifex aeolicus, UniProt O67854). Nature of the experiment: scintillation proximity assay, displacement of [3H]leucine by alanine. The note with it: Na+ at its K0.5 (11.2 mM), pH 7.4 binding buffer, DDM.

On to `C[C@H](N)C(=O)O` [alanine], for which the KI-ala was 2560 ± 510 nM.

Values taken from doi:10.1101/283176v2 (biorxiv, 2018).
